Reference: US12233071B2, “Medicament for treating cough” (NIPPON CHEMIPHAR CO., LTD, priority 2018, dated 2025)
Entries after “also recorded” stand apart in the source; their conditions may differ.

Key:
[1] = system: citric acid (0.25 M)-induced cough; experiment: Citric acid-induced cough in mice, local application by inhalation using a nebulizer; assay type: in vivo, ICR strain mice; details: inhalation of 10, 30 or 100 μg/mL by nebulizer, 0.25 M citric acid after 4 min
Source text: (§1) Cough reflux is induced by inhalation of (in the case of mice, 0.1 M or 0.25 M and in the case of guinea pigs, 0.25 M or 0.5 M) citric acid by mice or guinea pigs under non-anesthesia conditions. The citric acid is made aerosol by using an ultrasonic nebulizer (NE-U17: OMRON Corporation), and is inhaled while the air is supplied with an artificial respirator (SN-480-7: Shinano Seisakusho). The citric acid aerosol has an average particle size of from 1 to 8 μm, and the artificial respirator is used to supply the air at a one-time ventilation volume of 6 mL, a frequency of 30 times per min, and an inhalation period of 3 min.
(§2) The respiration and the cough reflux are measured in accordance with the body-plethysmograph method. […] The respiration is recorded in a PC (IdeaPad 300: Lenovo) for measurement by measuring, as a change in volume of the cylinder, the chest movement of each experimental animal in the cylinder by using a PowerLab (ML826 PowerLab 2/26: AD Instruments) via a respiratory flow meter. […] This change is recorded using the respiratory flow meter. This frequency is recorded to measure the number of coughs. The data is analyzed by LabChart version 8 (ADInstruments). In addition, immediately before inhalation of citric acid, the respiratory frequency per 15 sec is measured. […]

[2] = system: citric acid (0.1 M)-induced cough; experiment: Citric acid-induced cough in airway inflammation (LPS) model mice, oral administration; assay type: in vivo, ICR strain mice; details: oral 0.3 mg/kg 1 h before 0.1 M citric acid stimulation
Protocol: Model mice with chronic cough caused by airway inflammation (referred to as “airway inflammation model mice”) were produced.
The airway inflammation model mice were produced while the mice were nasally instilled with lipopolysaccaride (LPS:1 μg/100 μL) daily for 3 days under diethyl ether inhalation anesthesia.
In addition, experiments for evaluating medicament efficacy on the airway inflammation model mice were conducted at 24 h after the final LPS administration.
Cough reflux is induced by inhalation of (in the case of mice, 0.1 M or 0.25 M and in the case of guinea pigs, 0.25 M or 0.5 M) citric acid by mice or guinea pigs under non-anesthesia conditions. […]
as §2

[3] = system: citric acid (0.25 M)-induced cough; experiment: Citric acid-induced cough in OVA-sensitized cough model guinea pigs, oral administration; assay type: in vivo, Hartly strain guinea pigs; details: oral 1 mg/kg 1 h before citric acid stimulation; for cough response increased due to airway inflammation: OVA-sensitized cough group guinea pigs
Source text: When OVA, a foreign antigen, is inhaled, airway inflammation accompanied by eosinophil infiltration is induced. Consequently, OVA-sensitized guinea pigs present symptoms of allergic cough and atopic cough. Thus, the guinea pigs have been widely used as a pathological model (antigen-induced airway inflammation model animals) reflecting human clinical conditions. Here, in the Examples of the present application, whether a compound(s) of the present application elicited cough inhibitory action against the pathological model was evaluated.
The OVA-sensitized cough model guinea pigs were produced specifically by the following procedure.
Note that in the following procedure, Ovalbumin or mepyramine maleate is dissolved in saline and then used.
The number of citric acid-induced coughs is measured. Then, a mixture of 200 μL of 0.05% OVA (Ovalbumin) and 100 μL of Imject Alum (prepared by suspending aluminum hydroxide and magnesium hydroxide, each at a concentration of 40 mg/mL, in water and by adding an inactivating stabilizer thereto) per guinea pig is administered intraperitoneally (i.p.).
After the intraperitoneal administration, 0.5% OVA is given for 5 min by inhalation at days 7, 14, 21, and 28.
Note that at 30 min before the inhalation, mepyramine maleate (10 mg/kg) is given i.p. to prevent a shock symptom.
At Day 35, 0.5% ovalbumin is given for 60 min by inhalation. Note that at 30 min before the inhalation, mepyramine maleate (10 mg/kg) is given i.p. to prevent a shock symptom.
The next day of the final 0.5% ovalbumin challenge (day 35), the test is conducted.
(§3) OVA-sensitized cough model guinea pigs were used and stimulated with 0.25 M citric acid by the same procedure as of Example 9 to induce cough reflux. For guinea pigs used in this Example, Hartly strain guinea pigs were used for any of the below-described pretreatment guinea pigs, sham group guinea pigs, and OVA-sensitized cough group guinea pigs.
as §3, with “10” for “9”

[4] = system: citric acid (0.25 M)-induced cough; experiment: Citric acid-induced cough reflux in pretreatment mice, oral administration; assay type: in vivo, ICR strain mice
[5] = system: ACh-induced contraction of bronchial smooth muscle; experiment: Contraction of tracheobronchial smooth muscles excised from guinea pig (isometric tension, organ bath)
Protocol: An animal was sacrificed by phlebotomy while the ventral aorta was dissected under urethane (2 g/kg, i.p.) anesthesia. Then, a left major bronchial tissue was excised. After a connective tissue and blood vessels were removed, each ring specimen with a width of about 3 mm was prepared and suspended in an organ bath. Then, the isometric tension was measured while the resting tension was set to 1.0 g. After the baseline tension was stabilized, whether each ring specimen was subject to an acetylcholine (ACh: 10^−3 M)-mediated contraction reaction was verified. Then, the following mater was investigated. […] Next, a tracheal or left major bronchial tissue was excised. After a connective tissue and blood vessels were removed, each ring specimen with a width of about 3 mm was prepared and suspended in an organ bath. Then, the isometric tension was measured while the resting tension was set to 1.0 g. After the baseline tension was stabilized, whether each ring specimen was subject to an acetylcholine (ACh: 10^−3 M)-mediated contraction reaction was verified. Then, the following mater was investigated. […] The specimen was likewise treated with just 0.1% DMSO.

[6] = system: citric acid (0.5 M)-induced cough; experiment: Citric acid-induced cough reflux in pretreatment guinea pigs, oral administration; assay type: in vivo, Hartly strain guinea pigs; details: guinea pigs; for inhibition of citric acid-induced cough (number of coughs): oral (compound A 1, 3, 10 mg/kg; compound B 1, 3, 10, 30 mg/kg); for inhibition of citric acid-induced cough (number of coughs) / dose at which a significant inhibitory action on citric acid-induced cough was exhibited: 0.5 M citric acid 1 h after administration; for dose at which a significant inhibitory action on citric acid-induced cough was exhibited: oral
Source text: as §1
The respiration and the cough reflux are measured in accordance with the body-plethysmograph method. The plethysmograph used includes: a plastic-made, cylindrical cylinder part in which the trunk of each mouse or guinea pig is housed; and a cap part that covers the head portion (any plastic-made cylinder is allowed as long as each experimental animal can be put in; in the case of the mouse, for instance, the part with a diameter of 4 cm and a length of 7 cm was used). An exhaust hole is created at an upper cylinder portion so as to be able to connect, via a silicon tube, to a respiratory flow meter (TP-602T: NIHON KOHDEN CORPORATION). To tightly seal the inside of the cylinder, a rubber or celluloid collar is attached to the neck of each animal, and the cap covering the whole head is used to fix them. The head-attached cap part has an exhaust port and an inhalation port created for inhalation of a cough-inducing substance. In addition, a screw-type lid is attached to a tail portion of the cylinder so as to move in or out each experimental animal. Each mouse is put in the cylinder, allowed to play for at least 30 min, adapted to an experimental environment, and then subjected to the experiment. The respiration is recorded in a PC (IdeaPad 300: Lenovo) for measurement by measuring, as a change in volume of the cylinder, the chest movement of each experimental animal in the cylinder by using a PowerLab (ML826 PowerLab 2/26: AD Instruments) via a respiratory flow meter. When a cough is induced, the chest of the experimental animal is moved vigorously, which causes an instantaneous large volume change in the cylinder. This change is recorded using the respiratory flow meter. This frequency is recorded to measure the number of coughs. The data is analyzed by LabChart version 8 (ADInstruments). In addition, immediately before inhalation of citric acid, the respiratory frequency per 15 sec is measured.
In this way, the effects were investigated.
At that time, Hartly strain guinea pigs were used as the guinea pigs, and 0.5 M citric acid was used as the citric acid.
In this way, the effects were investigated. Here, 0.5 M citric acid was used as the pretreated citric acid.

| SMILES | antitussive effect by local application [1] | cough response increased due to airway inflammation ([2]; airway inflammation group mice) | change in the number of coughs in sham group mice ([2]; sham group mice (saline instead of LPS), sodium salt, 0.3 mg/kg) | cough response increased due to airway inflammation [3] | change in the number of coughs in sham group guinea pigs [3] | medicament efficacy on citric acid-induced cough at 0.3 mg/kg ([4]; oral 0.3 mg/kg, examination of Example 3) | cough inhibition rate, compound A versus the same dose of dihydrocodeine ([4]; oral 10 mg/kg, 0.25 M citric acid 1 h after administration) | inhibition of citric acid-induced cough (number of coughs) ([4]; oral 0.3, 1, 3 or 10 mg/kg, citric acid stimulation 1 h after administration) | dose at which a significant inhibitory action on citric acid-induced cough was exhibited ([4]; oral, citric acid stimulation 1 h after administration) [mg/kg] | effect on baseline tension of bronchial smooth muscle ([5]; 10^−5 M, solvent water) | effect on 10^−5 M Ach-induced contraction reaction of bronchial smooth muscle ([5]; 10^−5 M, solvent water, about 50% contraction of the maximum contraction) | inhibition of citric acid-induced cough (number of coughs) [6] | dose at which a significant inhibitory action on citric acid-induced cough was exhibited [6] [mg/kg] | effect on ACh-induced contraction of bronchial smooth muscle ([5]; 10^−6 M in DMSO at final 0.1%, 10^−5 M ACh) | medicament efficacy on citric acid-induced cough at 1 mg/kg ([6]; oral 1 mg/kg, investigation of Example 10 (FIG. 10)) |
| --- | --- | --- | --- | --- | --- | --- | --- | --- | --- | --- | --- | --- | --- | --- | --- |
| O=C1CC(=O)N(c2cccc(-c3nnn[nH]3)c2)c2ccc3ccccc3c2N1.[Na] [compound A, 5-[3-(1H-tetrazol-5-yl)phenyl]-1H-naphtho[1,2-b][1,4]diazepin-2,4(3H,5H)-dione sodium salt] | elicited an antitussive effect, in a dose-dependent manner, more strongly and more rapidly using a lower dose than the case of oral administration | inhibited completely | a change in the number of coughs was unobserved; also recorded: did not elicit any significant medicament efficacy | inhibited completely | a change in the number of coughs was unobserved | did not elicit any significant medicament efficacy | comparable | inhibited citric acid-induced cough in a dose-dependent manner | ≥ 1 | did not affect | did not affect | inhibited citric acid-induced cough in a dose-dependent manner | ≥ 1 | – | – |
| O=C1CC(=O)N(c2ccc(NC(=O)c3ccccc3I)cc2)c2ccc3ccccc3c2N1 [compound B, 5-[4-(2-iodobenzoylamino)phenyl]-1H-naphtho[1,2-b][1,4]diazepin-2,4(3H,5H)-dione] | – | – | – | inhibited completely | a change in the number of coughs was unobserved | – | – | – | – | – | – | inhibited citric acid-induced cough in a dose-dependent manner | ≥ 1 | Neither 0.1% DMSO itself, which was a solvent, nor compound B (at 10^−6 M) affected the ACh-induced contraction of bronchial smooth muscle | does not elicit any significant medicament efficacy |
